The record followed here is patent US20100105651A1, “ANTAGONISTS OF SNS SODIUM CHANNELS” (priority 2005, published 2010).

Each structure is given as a SMILES string. pIC50: −log10 of the molar value.

The target in this assay is T1, human NaV1.8 (hNaV1.8) ion channel (Homo sapiens, UniProt Q9Y5Y9).
T1 construct: expressed in transfected cells
T1 sequence (Q9Y5Y9 whole entry): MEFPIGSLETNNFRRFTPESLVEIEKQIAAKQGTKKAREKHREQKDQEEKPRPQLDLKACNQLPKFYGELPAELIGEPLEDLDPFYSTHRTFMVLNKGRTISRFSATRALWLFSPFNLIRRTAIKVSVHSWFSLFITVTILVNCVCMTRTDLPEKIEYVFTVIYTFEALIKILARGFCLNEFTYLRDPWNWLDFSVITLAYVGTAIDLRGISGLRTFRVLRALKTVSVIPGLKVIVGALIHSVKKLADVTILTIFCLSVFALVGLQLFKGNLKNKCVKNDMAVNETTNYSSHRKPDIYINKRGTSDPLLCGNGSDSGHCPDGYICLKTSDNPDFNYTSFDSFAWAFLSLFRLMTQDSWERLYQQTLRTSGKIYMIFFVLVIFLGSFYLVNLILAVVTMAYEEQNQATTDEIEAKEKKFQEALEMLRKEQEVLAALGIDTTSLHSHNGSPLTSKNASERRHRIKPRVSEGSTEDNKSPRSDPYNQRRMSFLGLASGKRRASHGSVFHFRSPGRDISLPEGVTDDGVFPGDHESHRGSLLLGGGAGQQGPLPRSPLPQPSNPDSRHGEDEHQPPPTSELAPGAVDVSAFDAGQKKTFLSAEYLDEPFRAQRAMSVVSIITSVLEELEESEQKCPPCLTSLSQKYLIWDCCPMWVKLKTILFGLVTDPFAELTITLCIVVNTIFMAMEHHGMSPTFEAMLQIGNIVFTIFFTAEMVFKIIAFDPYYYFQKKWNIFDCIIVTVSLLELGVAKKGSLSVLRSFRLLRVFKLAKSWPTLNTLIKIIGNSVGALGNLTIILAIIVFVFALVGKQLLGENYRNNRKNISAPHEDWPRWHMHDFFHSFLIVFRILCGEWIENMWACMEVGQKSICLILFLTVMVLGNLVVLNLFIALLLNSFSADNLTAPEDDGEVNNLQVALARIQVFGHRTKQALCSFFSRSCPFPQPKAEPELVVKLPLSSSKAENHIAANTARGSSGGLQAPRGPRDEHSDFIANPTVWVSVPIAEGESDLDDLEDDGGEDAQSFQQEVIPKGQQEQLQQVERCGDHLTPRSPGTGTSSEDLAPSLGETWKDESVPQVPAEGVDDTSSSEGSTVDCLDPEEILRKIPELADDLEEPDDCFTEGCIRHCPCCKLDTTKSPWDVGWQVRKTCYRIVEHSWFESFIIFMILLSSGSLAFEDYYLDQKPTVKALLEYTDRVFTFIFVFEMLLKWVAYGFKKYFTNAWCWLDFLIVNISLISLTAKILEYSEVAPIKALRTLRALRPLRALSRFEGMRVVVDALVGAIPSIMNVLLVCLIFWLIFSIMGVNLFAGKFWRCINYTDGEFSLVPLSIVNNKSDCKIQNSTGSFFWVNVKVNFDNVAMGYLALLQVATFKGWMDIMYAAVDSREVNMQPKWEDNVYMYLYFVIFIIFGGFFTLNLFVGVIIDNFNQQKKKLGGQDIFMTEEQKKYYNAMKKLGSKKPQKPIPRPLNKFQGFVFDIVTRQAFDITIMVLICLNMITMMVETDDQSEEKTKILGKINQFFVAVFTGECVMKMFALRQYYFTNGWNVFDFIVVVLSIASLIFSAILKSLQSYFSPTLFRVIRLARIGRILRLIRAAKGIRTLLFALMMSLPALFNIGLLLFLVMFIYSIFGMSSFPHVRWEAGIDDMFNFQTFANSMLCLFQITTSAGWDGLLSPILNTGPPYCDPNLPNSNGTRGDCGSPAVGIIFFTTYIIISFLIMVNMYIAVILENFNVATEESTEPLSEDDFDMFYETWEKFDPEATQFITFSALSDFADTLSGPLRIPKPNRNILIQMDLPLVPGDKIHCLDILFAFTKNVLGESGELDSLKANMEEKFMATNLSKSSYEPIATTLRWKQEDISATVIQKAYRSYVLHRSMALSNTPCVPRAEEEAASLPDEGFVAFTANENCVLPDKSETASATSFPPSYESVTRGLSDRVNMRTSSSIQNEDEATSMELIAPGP
Description: Inhibition of Human NaV1.8 stably expressed in SH-SY-5Y cells (membrane potential dye fluorescence assay). Format: cell-based. Conditions: SH-SY-5Y cells stably expressing hNaV1.8; FLIPR membrane potential dye; 10 μM pyrethroid, 250 nM TTX; test range 100 μM-0.05 μM; read-out: hNav1.8 IC50.
For orientation: pIC50 means the negative decadic logarithm of the IC50, by convention in mol/L. On to `Cc1ccccc1C(C)NC1CN(C(=O)Nc2ccc(Oc3ccccc3)cc2)C1` (centres unmarked) [Example 61, 3-(1-o-Tolyl-ethylamino)-azetidine-1-carboxylic acid (4-phenoxy-phenyl)-amide], for which the pIC50 is 6.12.

As to `O=C(Cc1ccc(Oc2ccc(F)cc2)cc1)N1CC(NC2Cc3ccc(F)cc3C2)C1` (centres unmarked) [Example 50, 1-[3-(5-Fluoro-indan-2-ylamino)-azetidin-1-yl]-2-[4-(4-fluoro-phenoxy)-phenyl]-ethanone], the pIC50 was 6.11. Take `O=C(Nc1cccc(Oc2ccccc2)c1)N1CC(NC2CCc3cc(F)ccc32)C1` (centres unmarked) [Example 28, 3-(5-Fluoro-indan-1-ylamino)-azetidine-1-carboxylic acid (3-phenoxy-phenyl)-amide]: the negative-log IC50 (pIC50) is 6.37. Under `O=C(c1ccc(Oc2ccc(F)cc2)cc1)N1CC(NC2CCc3cc(F)ccc32)C1` (centres unmarked) [Example 43, [3-(5-Fluoro-indan-1-ylamino)-azetidin-1-yl]-[4-(4-fluoro-phenoxy)-phenyl]-methanone] stands 6.62; under `COc1ccc2c(c1)CCC2NC1CN(C(=O)Nc2ccc(Oc3ccc(F)cc3)cc2)C1` (centres unmarked) [Example 21, 3-(5-Methoxy-indan-1-ylamino)-azetidine-1-carboxylic acid [4-(4-fluoro-phenoxy)-phenyl]-amide], 6.51. For `CC(c1ccccc1Cl)N(C)C1CN(C(=O)Nc2ccc(Oc3ccccc3)cc2)C1` (centres unmarked) [Example 67, 3-{[1-(2-Chloro-phenyl)-ethyl]-methyl-amino}-azetidine-1-carboxylic acid (4-phenoxy-phenyl)-amide], the pIC50 was 6.26. Turning to `CC(c1ccc(F)cc1)N(C)C1CN(C(=O)Nc2ccc(Oc3ccccc3)cc2)C1` (centres unmarked) [Example 91, 3-{[1-(4-Fluoro-phenyl)-ethyl]-methyl-amino}-azetidine-1-carboxylic acid (4-phenoxy-phenyl)-amide], the negative logarithm of the IC50 (pIC50) was 6.16. Under `CC(NC1CN(C(=O)Nc2cccc(Oc3ccccc3)c2)C1)c1ccc(F)cc1Cl` (centres unmarked) [Example 58, 3-[1-(2-Chloro-4-fluoro-phenyl)-ethylamino]-azetidine-1-carboxylic acid (3-phenoxy-phenyl)-amide] stands 5.95.

Take `COc1ccc(C(C)NC2CN(C(=O)Nc3ccc(C(F)(F)F)cc3)C2)cc1` (centres unmarked) [Example 115, 3-[1-(4-Methoxy-phenyl)-ethylamino]-azetidine-1-carboxylic acid (4-trifluoromethyl-phenyl)-amide]: the negative logarithm of the IC50 (pIC50) was 5.61.

Turning to `CC(NC1CN(C(=O)Nc2ccc(C(F)(F)F)cc2)C1)c1ccccc1Cl` (centres unmarked) [Example 124, 3-[1-(2-Chloro-phenyl)-ethylamino]-azetidine-1-carboxylic acid (4-trifluoromethyl-phenyl)-amide], the negative-log IC50 (pIC50) is 5.61. Regarding `CN(C1CN(C(=O)Nc2ccc(Oc3ccccc3)cc2)C1)C(C)(C)c1ccccc1` [Example 99, 3-[Methyl-(1-methyl-1-phenyl-ethyl)-amino]-azetidine-1-carboxylic acid (4-phenoxy-phenyl)-amide], the negative-log IC50 (pIC50) is 6.20. For the compound `Cc1ccc(C(C)NC2CN(C(=O)Nc3ccc(C(F)(F)F)cc3)C2)cc1` (centres unmarked) [Example 122, 3-(1-p-Tolyl-ethylamino)-azetidine-1-carboxylic acid (4-trifluoromethyl-phenyl)-amide], the pIC50 was 5.77. Regarding `CC(NC1CN(C(=O)Nc2ccc(Oc3ccccc3)cc2)C1)c1ccc(N2CCCCC2)cc1` (centres unmarked) [Example 120, 3-[1-(4-Piperidin-1-yl-phenyl)-ethylamino]-azetidine-1-carboxylic acid (4-phenoxy-phenyl)-amide], the pIC50 was 6.23.

Take `CC(NC1CN(C(=O)Nc2ccc(Oc3ccccc3)cc2)C1)c1ccccc1C(F)(F)F` (centres unmarked) [Example 88, 3-[1-(2-Trifluoromethyl-phenyl)-ethylamino]-azetidine-1-carboxylic acid (4-phenoxy-phenyl)-amide]: the negative-log IC50 (pIC50) was 5.93. Take `CC(NC1CN(C(=O)Nc2cccc(C(F)(F)F)c2)C1)c1ccc(F)cc1` (centres unmarked) [Example 73, 3-[1-(4-Fluoro-phenyl)-ethylamino]-azetidine-1-carboxylic acid (3-trifluoromethyl-phenyl)-amide]: the pIC50 was 5.59. The value for `CCCCOc1cccc(NC(=O)N2CC(NC(C)c3ccc(F)cc3)C2)c1` (centres unmarked) [Example 69, 3-[1-(4-Fluoro-phenyl)-ethylamino]-azetidine-1-carboxylic acid (3-butoxy-phenyl)-amide] was 5.88. `CC(NC1CN(C(=O)Nc2ccc(Oc3ccccc3)cc2)C1)c1ccc(F)cc1Cl` (centres unmarked) [Example 57, 3-[1-(2-Chloro-4-fluoro-phenyl)-ethylamino]-azetidine-1-carboxylic acid (4-phenoxy-phenyl)-amide]: the pIC50 is 5.91.
